Experimental data: paper PMC6768771 (Current cancer drug targets, 2019)

Key:
Test in all cases: Cell viability assay
Type in all cases: cell-based
NCI-H1299 cells = conditions: Homo sapiens, NCI-H1299, 48 h, read-out: EC50 at 48 h
NCI-H1573 cells = conditions: Homo sapiens, NCI-H1573, 48 h, read-out: EC50 at 48 h
NCI-H661 cells = conditions: Homo sapiens, NCI-H661, 48 h, read-out: EC50 at 48 h
NCI-H460 cells = conditions: Homo sapiens, NCI-H460, 48 h, read-out: EC50 at 48 h
NCI-H1563 cells = conditions: Homo sapiens, NCI-H1563, 48 h, read-out: EC50 at 48 h
A549 cells = conditions: Homo sapiens, A549, 48 h, read-out: EC50 at 48 h

Row | SMILES | EC50 (NCI-H1299 cells) [µM] | EC50 (NCI-H1573 cells) [µM] | EC50 (NCI-H661 cells) [µM] | EC50 (NCI-H460 cells) [µM] | EC50 (NCI-H1563 cells) [µM] | EC50 (A549 cells) [µM]
1 | C#Cc1cccc(Nc2ncnc3cc(OCCOC)c(OCCOC)cc23)c1 [Erlotinib] | > 200 | > 200 | > 200 | > 200 | > 200 | > 200
2 | CC(=O)O[C@@]12CO[C@@H]1C[C@H](O)[C@@]1(C)C(=O)[C@H](O)C3=C(C)[C@@H](OC(=O)[C@H](O)[C@@H](NC(=O)OC(C)(C)C)c4ccccc4)C[C@@](O)([C@@H](OC(=O)c4ccccc4)[C@H]21)C3(C)C [Docetaxel] | 72 | > 200 | > 200 | 56 | 80 | > 200
3 | CC(=O)O[C@H]1C(=O)[C@@]2(C)[C@H]([C@H](OC(=O)c3ccccc3)[C@]3(O)C[C@H](OC(=O)[C@H](O)[C@@H](NC(=O)c4ccccc4)c4ccccc4)C(C)=C1C3(C)C)[C@]1(OC(C)=O)CO[C@@H]1C[C@@H]2O [Paclitaxel] | 60 | > 200 | 11 | 26 | > 200 | > 200
